Laboratory results reported in patent publication US20180148418A1, “AMIDO-SUBSTITUTED CYCLOHEXANE DERIVATIVES” (Bayer Pharma Aktiengesellschaft, priority 2015, published 2018).

Assays:
[1] = test system: HEK293 cells cotransfected with the FOP control vector; test: HEK293 FOP assay (control reporter with non-functional TCF elements); type: cell-based; conditions: Homo sapiens, 16 hours
In short: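 Compound series from 50 μM down to 15 nM, prediluted in DMSO then 50-fold into CAFTY buffer (pH 7.4, 2 mM Ca2+, 0.01% BSA), tested alongside TOP cells on a Geneticin-selected HEK293 FOP line whose TCF elements are replaced by a random sequence; recombinant human Wnt-3a applied at 2500-5 ng/ml.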

TNKS1 = target: T1, TNKS1 (Homo sapiens, UniProt O95271); test: TNKS1 Assay B (auto-parsylation, [3H]-NAD+ SPA); type: biochemical; conditions: 6 nM TNKS1, auto-parsylation, over night at room temperature
T1 construct: purchased BPS Bioscience, San Diego, USA 80579 (TNKS1 Histone Ribosylation Assay Kit)
T1 sequence (O95271 1-1327): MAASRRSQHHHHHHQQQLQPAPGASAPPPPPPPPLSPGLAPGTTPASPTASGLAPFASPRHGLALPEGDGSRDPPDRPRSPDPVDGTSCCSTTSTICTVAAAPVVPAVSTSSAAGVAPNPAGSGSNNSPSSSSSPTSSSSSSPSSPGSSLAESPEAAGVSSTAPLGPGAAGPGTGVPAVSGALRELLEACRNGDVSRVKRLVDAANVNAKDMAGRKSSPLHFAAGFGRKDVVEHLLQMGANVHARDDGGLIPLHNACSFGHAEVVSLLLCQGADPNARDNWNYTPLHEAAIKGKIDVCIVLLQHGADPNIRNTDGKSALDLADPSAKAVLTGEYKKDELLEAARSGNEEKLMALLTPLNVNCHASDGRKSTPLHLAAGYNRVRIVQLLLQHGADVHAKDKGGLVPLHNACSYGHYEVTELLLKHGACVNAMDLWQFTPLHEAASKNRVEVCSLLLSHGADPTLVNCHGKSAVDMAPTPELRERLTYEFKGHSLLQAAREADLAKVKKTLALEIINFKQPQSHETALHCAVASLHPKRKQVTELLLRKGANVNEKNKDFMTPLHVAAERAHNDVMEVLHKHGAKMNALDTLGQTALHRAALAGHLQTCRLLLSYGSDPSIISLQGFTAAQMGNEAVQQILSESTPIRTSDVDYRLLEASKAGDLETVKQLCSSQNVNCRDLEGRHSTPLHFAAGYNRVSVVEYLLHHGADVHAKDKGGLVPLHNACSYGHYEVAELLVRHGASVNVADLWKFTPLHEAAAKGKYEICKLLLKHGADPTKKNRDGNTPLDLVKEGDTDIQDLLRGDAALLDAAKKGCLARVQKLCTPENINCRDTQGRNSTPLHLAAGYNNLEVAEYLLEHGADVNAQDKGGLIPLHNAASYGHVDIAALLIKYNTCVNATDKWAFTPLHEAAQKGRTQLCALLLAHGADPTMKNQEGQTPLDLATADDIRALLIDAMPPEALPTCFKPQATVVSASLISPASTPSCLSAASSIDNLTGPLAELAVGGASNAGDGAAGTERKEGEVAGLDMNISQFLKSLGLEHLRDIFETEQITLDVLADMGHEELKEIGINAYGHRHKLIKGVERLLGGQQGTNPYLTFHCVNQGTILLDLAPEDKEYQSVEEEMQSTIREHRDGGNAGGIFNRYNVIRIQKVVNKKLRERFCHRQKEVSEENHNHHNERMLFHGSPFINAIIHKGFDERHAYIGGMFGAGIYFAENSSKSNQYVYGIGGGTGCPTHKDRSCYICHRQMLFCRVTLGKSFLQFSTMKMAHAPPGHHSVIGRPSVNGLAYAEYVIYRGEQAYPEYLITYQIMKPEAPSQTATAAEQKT

Row | SMILES | IC50 [1] | IC50 (TNKS1)
1 | O=C(N[C@H]1CC[C@@]2(CCN(c3cccc(Cl)c3)C2=O)CC1)c1[nH]cnc1C(=O)N1CCOCC1 [Example 286, N-[(trans)-2-(3-chlorophenyl)-1-oxo-2-azaspiro[4.5]dec-8-yl]-4-(morpholin-4-ylcarbonyl)-1H-imidazole-5-carboxamide] | ≥ 50000 nM | 8600 nM
2 | CNC(=O)c1nc[nH]c1C(=O)N[C@H]1CC[C@@]2(CCN(c3cc(C)c(F)cc3Cl)C2=O)CC1 [Example 288, N^5-[(trans)-2-(2-chloro-4-fluoro-5-methylphenyl)-1-oxo-2-azaspiro[4.5]dec-8-yl]-N^4-methyl-1H-imidazole-4,5-dicarboxamide] | 20000 nM | 6.7 nM
3 | CCNC(=O)c1nc[nH]c1C(=O)N[C@H]1CC[C@@]2(CCN(c3cc(C)c(F)cc3Cl)C2=O)CC1 [Example 289, N^5-[(trans)-2-(2-chloro-4-fluoro-5-methylphenyl)-1-oxo-2-azaspiro[4.5]dec-8-yl]-N^4-ethyl-1H-imidazole-4,5-dicarboxamide] | 16000 nM | 8.7 nM
4 | Cc1cc(N2CC[C@]3(CC[C@@H](NC(=O)c4[nH]cnc4C(=O)NCCN4CCC(C)CC4)CC3)C2=O)c(Cl)cc1F [Example 290, N^5-[(trans)-2-(2-chloro-4-fluoro-5-methylphenyl)-1-oxo-2-azaspiro[4.5]dec-8-yl]-N^4-[2-(4-methylpiperidin-1-yl)ethyl]-1H-imidazole-4,5-dicarboxamide] | 16000 nM | 6.2 nM
5 | Cc1cc(N2CC[C@]3(CC[C@@H](NC(=O)c4[nH]cnc4C(=O)NCC(F)(F)F)CC3)C2=O)c(Cl)cc1F [Example 297, N^5-[(trans)-2-(2-chloro-4-fluoro-5-methylphenyl)-1-oxo-2-azaspiro[4.5]dec-8-yl]-N^4-(2,2,2-trifluoroethyl)-1H-imidazole-4,5-dicarboxamide] | 9300 nM | 10 nM
6 | O=C(N[C@H]1CC[C@@]2(CCN(c3cc(F)c(F)cc3Cl)C2=O)CC1)c1cnc2cccnn12 [Example 298, N-[(trans)-2-(2-chloro-4,5-difluorophenyl)-1-oxo-2-azaspiro[4.5]dec-8-yl]imidazo[1,2-b]pyridazine-3-carboxamide] | ≥ 50000 nM | 6.1 nM
7 | Cc1cc(C)n2ncc(C(=O)N[C@H]3CC[C@@]4(CCN(c5cc(F)c(F)cc5Cl)C4=O)CC3)c2n1 [Example 299, N-[(trans)-2-(2-chloro-4,5-difluorophenyl)-1-oxo-2-azaspiro[4.5]dec-8-yl]-5,7-dimethylpyrazolo[1,5-a]pyrimidine-3-carboxamide] | ≥ 50000 nM | 7.1 nM
8 | Cc1cc(N2CCC[C@]3(CC[C@@H](NC(=O)c4cnn5cccnc45)CC3)C2=O)c(Cl)cc1F [Example 300, N-[(trans)-2-(2-chloro-4-fluoro-5-methylphenyl)-1-oxo-2-azaspiro[5.5]undec-9-yl]pyrazolo[1,5-a]pyrimidine-3-carboxamide] | ≥ 500 nM | 94 nM
9 | Cc1cc(N2CCC[C@]3(CC[C@@H](NC(=O)c4cnc5cccnn45)CC3)C2=O)c(Cl)cc1F [Example 301, N-[(trans)-2-(2-chloro-4-fluoro-5-methylphenyl)-1-oxo-2-azaspiro[5.5]undec-9-yl]imidazo[1,2-b]pyridazine-3-carboxamide] | ≥ 500 nM | 130 nM
10 | Cc1cc(C)n2ncc(C(=O)N[C@H]3CC[C@@]4(CCCN(c5cc(C)c(F)cc5Cl)C4=O)CC3)c2n1 [Example 302, N-[(trans)-2-(2-chloro-4-fluoro-5-methylphenyl)-1-oxo-2-azaspiro[5.5]undec-9-yl]-5,7-dimethylpyrazolo[1,5-a]pyrimidine-3-carboxamide] | ≥ 500 nM | 170 nM
11 | COCCNC(=O)c1nc[nH]c1C(=O)N[C@H]1CC[C@@]2(CCN(c3cc(C)c(F)cc3Cl)C2=O)CC1 [Example 334, N^5-[(trans)-2-(2-chloro-4-fluoro-5-methylphenyl)-1-oxo-2-azaspiro[4.5]dec-8-yl]-N^4-(2-methoxyethyl)-1H-imidazole-4,5-dicarboxamide] | ≥ 50000 nM | 12 nM
12 | COC(=O)c1cc(C)nc2c(C(=O)N[C@H]3CC[C@H](C(=O)Nc4c(F)cc(F)cc4Cl)CC3)cnn12 [Example 351, methyl 3-({trans-4-[(2-chloro-4,6-difluorophenyl)carbamoyl]cyclohexyl}carbamoyl)-5-methylpyrazolo[1,5-a]pyrimidine-7-carboxylate] | ≥ 50000 nM | 150 nM
13 | COC(=O)c1cc(C)nc2c(C(=O)N[C@H]3CC[C@H](C(=O)Nc4ccc(F)cc4Cl)CC3)cnn12 [Example 352, methyl 3-({trans-4-[(2-chloro-4-fluorophenyl)carbamoyl]cyclohexyl}carbamoyl)-5-methylpyrazolo[1,5-a]pyrimidine-7-carboxylate] | ≥ 50000 nM | 350 nM
14 | Cc1c(C(C)(C)O)cnc2c(C(=O)N[C@H]3CC[C@H](C(=O)Nc4ccc(F)cc4Cl)CC3)cnn12 [Example 359, N-{trans-4-[(2-chloro-4-fluorophenyl)carbamoyl]cyclohexyl}-6-(2-hydroxypropan-2-yl)-7-methylpyrazolo[1,5-a]pyrimidine-3-carboxamide] | ≥ 50000 nM | > 10000 nM
15 | O=C(N[C@H]1CC[C@H](C(=O)Nc2ccc(F)cc2Cl)CC1)c1cnc2ccc(O)nn12 [Example 360, N-{trans-4-[(2-chloro-4-fluorophenyl)carbamoyl]cyclohexyl}-6-hydroxyimidazo[1,2-b]pyridazine-3-carboxamide] | ≥ 50000 nM | 2500 nM
16 | Cc1nc2c(C(=O)N[C@H]3CC[C@H](C(=O)Nc4c(F)cc(F)cc4Cl)CC3)cnn2c2c1CCC2 [Example 363, N-{trans-4-[(2-chloro-4,6-difluorophenyl)carbamoyl]cyclohexyl}-5-methyl-7,8-dihydro-6H-cyclopenta[e]pyrazolo[1,5-a]pyrimidine-3-carboxamide] | ≥ 50000 nM | 57 nM
